Legend:
microtubules = biological target: T1, microtubules (Sus scrofa, UniProt P02550+P02554); assay: Addition of 1 to fully assembled microtubules; format: biochemical; conditions: final concentration 200 to 500 μM, added after 60 min polymerization
T1 construct: purchased Cytoskeleton
Description: Tubulin polymerization assay in the presence of 1. In vitro tubulin polymerization reactions in (a) as prepared or (c) filtered reaction cocktail without 1 (control) or with different concentrations of 1. The amount of microtubule is in proportion to optical density at 340 nm. The calculated polymerization rate (Vmax) and the final tubulin polymer mass vs concentrations of 1 from tubulin polymerization in (b) as prepared or (d) filtered reaction cocktail. Negative stained TEM images of molecular aggregates of 1 binding with tubulin. Buffer (control) or 1 (final concentration at 200 to 500 μM) was introduced into reaction cocktail containing fully assembled microtubule (after 60 min of polymerization). The amount of microtubule remain unchanged after 30 min. (e) Molecular aggregates of 1 (400 μM) incubated with tubulins heterodimers in general tubulin buffer. Scale bar=40 nm. White arrows point at tubulin clusters on the molecular aggregates of 1. […]
Microtubules are highly dynamic, growing and shrinking at a constant rate. To determine whether molecular aggregates of 1 achieve the inhibition of microtubule formation through preventing microtubule growth or accelerating microtubule shrinkage, we applied 1 to the polymerization mixture after most of tubulin heterodimers already formed microtubules (60 min of pre-incubation) and monitored the change of microtubules.

MES-SA = assay: Cell viability assay (MTT), MES-SA; format: cell-based
Experimental: Cells in exponential growth phase were seeded in a 96 well plate at a concentration of 50,000 cell/well. The cells were allowed to attach to the wells for 24 h at 37° C., 5% CO2, then the culture medium was removed and 100 μL new culture medium containing 1 at gradient concentrations was placed into each well. After culturing at 37° C., 5% CO2 for desired time, each well was added by 10 μL of 5 mg/mL MTT 43-(4,5-Dimethylthiazol-2-yl)-2,5-diphenyltetrazolium bromide), and the plated cells were incubate at dark for 4 h. 100 μL 10% SDS with 0.01 M HCl was added to each well to stop the reduction reaction and to dissolve the purple. After incubation of the cells at 37° C. for overnight, the viability is measured. Data represent the mean±standard deviation of three independent experiments.
The estimation of the threshold concentration of aggregation (320-340 μM) for 1 allows us to examine the cytotoxicity of 1 in monomer and molecular aggregate forms. We first tested the cytotoxicity of 1 towards HeLa cells, the most widely studied cancer cell line, below and above the threshold concentration.

tubulin = biological target: T2, tubulin (Homo sapiens, UniProt P68366+P68371); assay: Hydrogel based protein pull-down assay, tubulin; format: binding; conditions: hydrogel 10 mM, HeLa cell lysate, Western blot
T2 construct: snap freeze and thaw for 3 cycles to lyse the cells; endogenous in cells; host or cells: HeLa cell lysate
Experimental: 4×10^7 of HeLa cells were scrapped from petri dish and washed with PBS buffer for 3 times then centrifuged at 300 g for 5 minutes. The collected cell pellet was mixed with phosphate buffer (100 mM) then snap freeze and thaw for 3 cycles to lyse the cells. The cell lysate was clarified by centrifugation at 12,000 g for 20 min at 4° C. to remove the whole cells, nuclei and large mitochondria. 50 μL of the supernatant lysate was gently mixed with 30 μL hydrogel of 1 (10 mM in PBS buffer, pH 7.6) on rotator at RT for 30 min. The hydrogel was collected by centrifugation (12,000 g, 5 min, 4° C.) and the supernatant was collected and placed on ice before analysis. The hydrogel was washed three times by gently mixing with 50 μL of the washing buffer (50 mM phosphate buffer pH 7.6 supplemented with 150 mM NaCl) on rotator at RT for 10 min followed by separation on centrifuge (12,000 g, 5 min, 4° C.). Supernatants were collected and placed on ice before analysis. Finally, the remaining hydrogel was dissolved using 1:1 washing buffer and 5× Laemeli buffer. All other samples were mixed with 5× Laemeli buffer (final concentration 2×) before SDS-PAGE.
That 1 enters the cells to affect cell cycle, cell migration, and eventually cell viability implies the interactions between the aggregates of 1 and certain intracellular proteins. […]

T1 sequence (P02550 whole entry): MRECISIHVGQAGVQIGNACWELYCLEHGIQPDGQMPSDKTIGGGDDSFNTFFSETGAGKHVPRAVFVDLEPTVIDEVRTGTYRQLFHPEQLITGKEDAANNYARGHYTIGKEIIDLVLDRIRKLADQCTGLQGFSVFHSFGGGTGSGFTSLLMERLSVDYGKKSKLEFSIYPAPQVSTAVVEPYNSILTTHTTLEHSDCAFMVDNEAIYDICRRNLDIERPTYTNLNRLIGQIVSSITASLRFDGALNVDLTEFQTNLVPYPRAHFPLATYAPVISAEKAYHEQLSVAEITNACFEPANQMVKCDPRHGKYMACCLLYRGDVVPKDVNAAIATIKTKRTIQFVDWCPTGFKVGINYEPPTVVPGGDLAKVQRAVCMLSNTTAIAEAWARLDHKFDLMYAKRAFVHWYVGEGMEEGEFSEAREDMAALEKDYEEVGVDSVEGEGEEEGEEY
T1 sequence (P02554 whole entry): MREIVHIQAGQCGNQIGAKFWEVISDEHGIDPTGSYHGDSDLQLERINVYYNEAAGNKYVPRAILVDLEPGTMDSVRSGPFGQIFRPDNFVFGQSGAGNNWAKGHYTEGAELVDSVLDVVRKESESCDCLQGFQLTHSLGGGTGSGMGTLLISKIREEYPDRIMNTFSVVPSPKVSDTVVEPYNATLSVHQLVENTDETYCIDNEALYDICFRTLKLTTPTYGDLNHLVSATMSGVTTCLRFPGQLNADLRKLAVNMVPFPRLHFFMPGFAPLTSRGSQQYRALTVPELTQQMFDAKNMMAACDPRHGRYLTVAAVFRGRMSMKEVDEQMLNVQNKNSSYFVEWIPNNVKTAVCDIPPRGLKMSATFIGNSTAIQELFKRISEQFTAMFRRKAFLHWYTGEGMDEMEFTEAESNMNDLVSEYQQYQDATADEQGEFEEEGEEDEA
T2 sequence (P68366 whole entry): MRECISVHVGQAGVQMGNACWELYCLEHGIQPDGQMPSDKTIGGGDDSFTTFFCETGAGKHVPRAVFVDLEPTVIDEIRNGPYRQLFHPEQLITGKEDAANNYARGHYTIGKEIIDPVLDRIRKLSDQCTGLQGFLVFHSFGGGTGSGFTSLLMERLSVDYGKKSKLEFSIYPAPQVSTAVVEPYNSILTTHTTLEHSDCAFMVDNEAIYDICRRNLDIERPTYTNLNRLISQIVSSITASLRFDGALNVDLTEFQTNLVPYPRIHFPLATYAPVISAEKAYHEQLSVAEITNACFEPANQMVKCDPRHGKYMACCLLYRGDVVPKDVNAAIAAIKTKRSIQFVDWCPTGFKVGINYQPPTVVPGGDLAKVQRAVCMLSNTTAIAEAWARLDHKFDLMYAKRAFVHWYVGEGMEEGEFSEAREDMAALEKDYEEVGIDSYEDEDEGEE
T2 sequence (P68371 whole entry): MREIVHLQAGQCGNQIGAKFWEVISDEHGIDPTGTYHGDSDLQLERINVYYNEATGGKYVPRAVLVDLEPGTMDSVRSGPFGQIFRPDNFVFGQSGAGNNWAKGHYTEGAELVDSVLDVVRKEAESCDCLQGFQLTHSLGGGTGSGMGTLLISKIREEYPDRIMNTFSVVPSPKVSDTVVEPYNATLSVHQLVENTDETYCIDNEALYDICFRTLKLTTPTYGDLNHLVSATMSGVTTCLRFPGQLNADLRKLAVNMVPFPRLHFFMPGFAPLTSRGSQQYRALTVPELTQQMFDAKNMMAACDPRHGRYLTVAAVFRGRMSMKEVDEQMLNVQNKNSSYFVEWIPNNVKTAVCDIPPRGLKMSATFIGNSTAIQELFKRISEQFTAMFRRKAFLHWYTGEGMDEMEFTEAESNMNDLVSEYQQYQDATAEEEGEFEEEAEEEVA

## O=C(Cc1ccc2ccccc2c1)N[C@@H](Cc1ccccc1)C(=O)N[C@@H](Cc1ccccc1)C(=O)O [Compound 1]
microtubules
  loss of preformed microtubules: little notable loss of microtubules
MES-SA
  cytotoxicity towards MES-SA: decreases of cell viabilities only observed at 400 and 500 μM
tubulin
  binding of tubulin to the aggregates of 1: higher affinity to the aggregates of 1 than actin does

— patent publication US10308682B2, “Inhibition of tumor growth with aggregates of small molecules” (BRANDEIS UNIVERSITY, priority 2013, dated 2019)
